From EP1997826A2, “Synthetic ligands for immunoglobulins and pharmaceutical compositions containing them” (Tecnogen S.p.A., priority 2007, dated 2008)
Like-named read-outs stand apart in the source and are kept apart here.

Key:
[1] = tested on: male rats of the CD1 species; type: in vivo, rat; details: for dose inhibiting the inflammatory reaction completely: rat, intradermal; for Inhibition of skin reaction (%): intradermal with IgE ascitic fluid
Experimental: Passive cutaneous anaphylaxis in the rat was induced according to the procedure described by Ovary et al., 1952, Int. Arch. Allergy Appl. Immunol. 3:293-301. Rat ascitic fluid containing specific IgE against the ovalbumin antigen was injected in the shaved back of male rats of the CD1 species (Charles River, Italy). Ascitic fluid at different dilutions (from 20 to 20 000 times in PBS) was applied by intradermal injections at a volume of 50 µl, permitting the IgEs present in the ascitic fluid to bind to the FcεRs of the local mast cells, sensitizing them. On the next day, 1 mg of ovalbumin and the dye Evans Blue at a concentration of 2.0%, dissolved in 1 ml of PBS, were injected intravenously. After 30 minutes, the appearance, on the rats' backs, of stained areas in the dermis (wheals) with extent and intensity of staining proportional to the quantity of antigen-specific IgEs injected with the ascitic fluid, was observed. The experiment included a negative control, represented by the intradermal injection of 50 µl of PBS without ascitic fluid, and there was no corresponding appearance of staining. The rats were sacrificed and comparative evaluation of the dimensions and intensity of coloration of the wheals that developed was carried out by densitometric analysis of colour photographs of the animals taken with a single camera, a single film and in the same conditions of exposure times, lighting and orientation. The densitometric analyses were performed with the aid of the IMAGE PRO-PLUS software (Media Cybernetics, Inc.). On the basis of the results obtained in the IgE-FcεR linear binding assay (absence of inhibitors), selecting as reference point the value of dilution of the ascitic fluid at which the most intense inflammatory reaction was observed (the wheal with most intense staining, and consequently the maximum signal on the densitometer), an assay of inhibition of the allergic reaction was performed using peptide lB and the comparative peptide. For this purpose, 25 µl of ascitic fluid containing IgE suitably diluted was incubated with 25 µl of PBS containing different doses of the test compounds (0.025, 0.25, 2.5, 25, 250 and 2500 µg). A single rat was used for each compound. The back of each rat was shaved and was then subdivided into 8 sections by making marks to delimit the zones in which the injections were made. The mixture (50 µl) containing the ascitic fluid and the compounds at the various doses was administered intradermally at each selected point. An injection of 25 µl of ascitic fluid suitably diluted and incubated with 25 µl of PBS was used as the positive control, and 50 µl of PBS was used as the negative control. After 24 hours, the antigen was injected together with the Evans Blue dye as previously described and thirty minutes later, corresponding to the injection sites on the rats' backs, the appearance of coloured wheals was observed, with intensity and dimensions markedly less than in the zones in which higher concentrations of compounds had been applied.

[2] = tested on: immunoglobulins (IgG, IgM, IgA and IgE); test: affinity chromatography of raw human serum on peptide immobilized on CH-Sepharose-4B; type: binding; details: Western Blot, albumin not retained
Experimental: (§1) The peptide of formula (IB) prepared in Example 1 (10 mg) was dissolved in 5 ml of aqueous solution of sodium bicarbonate 0.1 M, NaCl 0.5 M, pH 8.5 and then added to 0.5 g of activated resin CH-Sepharose-4B (Amersham Biosciences, Uppsala, Sweden, Cat. No. 17-0490-01), a preactivated support for affinity chromatography for the direct coupling of peptides and proteins. The suspension was stirred for 24 hours and the extent of coupling was monitored by taking samples of the reaction mixture, at various times, followed by analysis by RP-HPLC.
(§2) Approximately 90-95% of the initial peptide is found to be bound covalently to the resin after 24 hours. The derivatized resin is incubated with 0.1 M Tris, pH 8.5 to block any sites of the resin that are still reactive, and is then packed in a glass column 100 x 0.6 cm I.D. with a variable piston (OMNIFIT, Cat. No. 006CC-06-10-FF).
(§3) For the purification of immunoglobulins from serum, the column was equilibrated with a buffer 50 mM Bis-Tris (Sigma, Cat. No. B9754), pH 6.5, to a flow of 1 ml/min, monitoring the eluent at 280 nm. Raw rabbit serum (Sigma, Cat, No. R9133) was loaded in the column and, after elution of the material that was not bound, the eluent was changed to acetic acid 0.1 M, pH 3.0, for elution of the adsorbed material. […]

[3] = tested on: immunoglobulins (IgG, IgM, IgA and IgE); test: affinity chromatography of raw murine serum on peptide immobilized on CH-Sepharose-4B; type: binding; details: Western Blot, albumin not retained
[4] = tested on: immunoglobulin fraction of the raw serum; test: affinity chromatography of raw rabbit serum on peptide immobilized on CH-Sepharose-4B; type: binding; details: 50 mM Bis-Tris pH 6.5, elution with acetic acid 0.1 M pH 3.0, albumin eluted to the dead volume
Experimental: as §1, §2, §3

[5] = molar value printed in brackets

Compound | dose inhibiting the inflammatory reaction completely [1] | dose inhibiting the inflammatory reaction completely [1, 5] | retention of immunoglobulins by the peptide column [2] | Inhibition of skin reaction (%) ([1]; Dose of Peptide 0.025 (µg/ml)) | Inhibition of skin reaction (%) ([1]; Dose of Peptide 0.25 (µg/ml)) | Inhibition of skin reaction (%) ([1]; Dose of Peptide 2.5 (µg/ml)) | Inhibition of skin reaction (%) ([1]; Dose of Peptide 25 (µg/ml)) | Inhibition of skin reaction (%) ([1]; Dose of Peptide 250 (µg/ml)) | Inhibition of skin reaction (%) ([1]; Dose of Peptide 2500 (µg/ml)) | activity greater than the activity of the comparative peptide ([1]; rat passive cutaneous anaphylaxis) | retention of immunoglobulins by the peptide column [3] | retention of immunoglobulins by the peptide column [4]
C[C@H](O)[C@@H](NC(=O)[C@H](N)CCCNC(=N)N)C(=O)N[C@H](Cc1ccc(O)cc1)C(=O)NCCCC[C@H](NC(=O)[C@@H](Cc1ccc(O)cc1)NC(=O)[C@H](NC(=O)[C@H](N)CCCNC(=N)N)[C@H](C)O)C(=O)NCCCC[C@H](NC(=O)[C@H](CCCCNC(=O)[C@@H](Cc1ccc(O)cc1)NC(=O)[C@H](NC(=O)[C@H](N)CCCNC(=N)N)[C@H](C)O)NC(=O)[C@@H](Cc1ccc(O)cc1)NC(=O)[C@H](NC(=O)[C@H](N)CCCNC(=N)N)[C@H](C)O)C(=O)NCC(=O)O [Comparative peptide, (H-D-Arg-D-Thr-D-Tyr-)4-L-Lys2-L-Lys-Gly-OH, reference compound] | 25 µg | 11.6 nmol | – | – | – | – | – | – | – | – | – | –
(H-L-Cys(p-MeOBzl)-D-Arg-D-Thr-D-Tyr)4-L-Lys2-L-Lys-L-Lys-OH [Peptide IB] | 2.5 µg | approx. 0.8 nmoles | able to retain the immunoglobulins (IgG, IgM, IgA and IgE) | 35% | 60% | 100% | 100% | 100% | 100% | approx. 15 times | able to retain the immunoglobulins (IgG, IgM, IgA and IgE) | able to retain the immunoglobulin fraction of the raw serum
